How the values were obtained:
Assay type in all cases: cell-based, human
[1] = tested on: AP-1; experiment: AP-1 binding site luciferase reporter assay in transfected HT1080 cells; conditions: 500 μg/mL CGlc, PMA-stimulated transfected HT1080 cells
Procedure: (§1) HT1080 cells cultured in 10 cm culture dishes were transiently transfected with MMP-9 promoter containing pGL3 luciferase reporter vector (Promega, Madison, Wis.) or AP-1 binding site containing luciferase reporter plasmid (Colontech, Palo Alto, […]) by Lipofectamine™ 2000™ reagent (Invitrogen). Beta-galactosidase expression vector co-transfected with the reporter vector to serve as an internal control of transfection efficiency. Transfected cells sub-cultured in 24-well plates were treated with different concentrations of CGlc. Following stimulation with PMA cells were cultured for 24 h. Cells were washed once with cold PBS and lysed with 200 μl/well lysis buffer (25 mM Tri-HCl, pH 8.0, containing 2 mM DDT and 1% Triton-X 100). Aliquots of cell lysate and luciferase substrate (Promega) were mixed in equal amounts in a 96-well plate and luminescence intensity was measured with a luminescence microplate reader (Tecan Austria GmbH, Austria). Beta-galactosidase activity was measured with ONPG buffer. The level of reporter gene expression was determined as a ratio, compared with cells stimulated by PMA (10 ng/mL) alone and represented as relative luciferase activity.
(§2) Transfection efficiency was determined by X-Gal staining method. Briefly, transfected cells were fixed with 0.5% glutaraldehyde and stained with X-Gal solution containing 20 mM K3Fe(CN)6, K4Fe(CN)6 and 1 mM MgCl2. […]

[2] = tested on: HT1080 cells; experiment: MTT cell viability (cytotoxicity) assay; conditions: even at 1 mg/mL, 24 h, in the presence and absence of FBS
Procedure: Equal number of HT1080 cells (4000 cells per well) cultured in 96-well plates with serum and serum free media were treated with various concentrations of CGlc for 24 h. Cell viability was then evaluated with the 3-(4,5-dimethyl[…])-2,5-diphenyltetrazolium bromide (MTT) spectrophotometrically (GENios® microplate reader, Tecan Austria GmbH, Austria) which measures conversion of tetrazolium salt in to blue formazan by viable cells.

[3] = tested on: MMP-9 promoter; experiment: MMP-9 promoter luciferase reporter assay in transfected HT1080 cells; conditions: PMA-stimulated transfected HT1080 cells
Procedure: as §1, §2

[4] = tested on: MMP-9; experiment: Fluorescence conjugated gelatin digestion assay on conditioned medium of PMA-stimulated HT1080 cells
Procedure: HT1080 cells grown in 24-well plates were treated with different concentrations of CGlc and conditioned media were collected by centrifugation at 13 000×g following PMA (10 ng/mL) treatment. Enzyme activities of conditioned media in 50 mmol/l Tris-HCl buffer (pH 7.5), 0.15 mol/l NaCl, 10 mmol/l CaCl2, 0.02% NaN3 (TNC buffer) containing 0.05% Brij 35 were determined using fluorescence conjugated gelatin peptide (Collagen Technology Corporation, Tokyo, Japan) as the substrate.
Fluoropeptides were incubated with conditioned media at 37° C. for 20 h, and the reaction was terminated by addition of 3% acetic acid. Fluorescence intensity was measured at 495 nm (excitation) and 520 nm (emission) with a GENios® fluorescence microplate reader (Tecan Austria GmbH, Austria).
The MMP-9 inhibitory effect of CGlC on MMP-9 activity stimulated by PMA in HT1080 cells was further confirmed using more sensitive fluorescence conjugated gelatin digestion assay which use fluorescence conjugated gelatin peptides as the substrate for MMP-9. The amount of active gelatinases (MMP-9/-2) present in CGIc treated stimulated conditioned medium obtained from incubation of HT1080 cells was assesssed from the resulting fluorescence activity. […] Therefore it can be presumed that difference in fluorescence intensities were mainly due to activity of MMP-9. […]

[5] = tested on: MMP-9; experiment: Gelatin zymography of MMP-9 gelatinolytic activity in conditioned medium of PMA-stimulated HT1080 cells; conditions: 500 μg/mL CGlc, HT1080 cells stimulated with PMA 10 ng/mL
Procedure: MMP-9 activity in HT1080 cells was assayed by gelatin zymography as described previously. For this, approximately 2×10^5 cells/mL HT1080 cells in serum free DMEM medium were seeded in 24-well plates and pre-treated with different concentrations of CGlc for 1 h. MMP-9 expression was stimulated by treatment of PMA (10 ng/mL) and cells were cultured for 48 h. Cell conditioned medium was subjected to substrate gel electrophoresis. Similar amount of protein containing conditioned media were applied without reduction to a 10% (w/v) polyacrylamide gel impregnated with 1 mg/mL gelatin. After electrophoresis, gel was washed in 50 mM Tris-HCl (pH 7.5) containing 2.5% Triton X-100 at room temperature and incubated overnight at 37° C. in zymography developing buffer containing 10 mM CaCI2, 50 mM Tris-HCl, and 150 mM NaCl. The gel was then stained with a […]. In this assay clear zones against the blue background indicate the presence of gelatinolytic activity.
The image of the gel was recorded using Fujifilm Image Reader LAS-3000 software in Science Image System, LAS 3000 (Fujifilm Life Science, Tokyo, Japan). The gelatinolytic activities were quantified using Multi Gauge V3.0 software.
To analyze the inhibition of MMP-9 mediated gelatinolytic activity in conditioned medium stimulated with PMA, we utilized human fibrosarcoma cell line, HT1080. […]

Substance: Carboxylated glucosamine [CGlc]
- suppression of AP-1 reporter activity [1]: 2-3 fold
- toxicity on HT1080 cells (MTT viability) [2]: did not show any toxicity
- inhibition of MMP-9-luciferase reporter gene activity ([3]; 100 μg/mL CGlc): Approximately 50%
- inhibition of MMP-9-luciferase reporter gene activity ([3]; 500 μg/mL CGlc): approximately 3 fold
- reduction of fluorescence intensity ([4]; 100 μg/mL CGlc): about 50%
- decrease of relative fluorescence activity ([4]; 500 μg/mL CGlc): up to 66%
- inhibition of MMP-9 lead gelatinolytic activity [5]: approximately 60%

Reference: patent US20090240046A1, “CARBOXYLATED GLUCOSAMINE COMPOUNDS FOR INHIBITING THE ACTIVATION AND EXPRESSION OF MATRIX METALLOPROTEINASE-9 IN HUMAN FIBROSARCOMA CELLS AND MATRIX METALLOPROTEINASE-9 INHIBITORS CONTAINING THE SAME” (priority 2006, published 2009)
